Laboratory results published in patent US9062048B2, “Cyclohexyl-azetidinyl antagonists of CCR2” (Janssen Pharmaceutica NV, priority 2010, dated 2015).

Molecular target: CCR2 (Homo sapiens (Human), UniProt P41597)
Assay: MCP-1 Receptor Binding Assay in THP-1 Cells;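 also: THP-1 is a human monocytic cell line, and nonspecific binding was defined with 1 µM unlabeled MCP-1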
Conditions: 0.5 nM 125I labeled MCP-1, 2 hours at 30° C., read-out: Inhibition of MCP-1 Binding IC50 MCP1B

CCR2, sequence (P41597 whole entry): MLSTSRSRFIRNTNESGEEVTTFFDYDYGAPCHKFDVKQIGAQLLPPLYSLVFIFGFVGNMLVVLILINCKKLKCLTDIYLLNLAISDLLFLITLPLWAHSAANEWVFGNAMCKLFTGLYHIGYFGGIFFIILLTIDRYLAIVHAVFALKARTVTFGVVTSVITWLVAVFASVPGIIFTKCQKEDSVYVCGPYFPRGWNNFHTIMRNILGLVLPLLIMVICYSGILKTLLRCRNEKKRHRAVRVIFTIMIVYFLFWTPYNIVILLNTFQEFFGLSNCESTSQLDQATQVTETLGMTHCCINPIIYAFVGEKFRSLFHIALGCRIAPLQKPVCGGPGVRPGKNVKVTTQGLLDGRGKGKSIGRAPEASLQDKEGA

IC50 [nM]	Compound
89	CC(O)[C@H]1CC[C@@H](N2CC(NC(=O)CNc3ncnc4ccc(C(F)(F)F)cc34)C2)CC1 (stereo partly drawn) [Example 97, N-(1-((1S,4s)-4-(1-hydroxyethyl)cyclohexyl)azetidin-3-yl)-2-((6-(trifluoromethyl)quinazolin-4-yl)amino)acetamide]
753	CC(C)(C)C(O)[C@H]1CC[C@@H](N2CC(NC(=O)CNc3ncnc4ccc(C(F)(F)F)cc34)C2)CC1 (stereo partly drawn) [Example 98, N-(1-((1R,4s)-4-(1-hydroxy-2,2-dimethylpropyl)cyclohexyl)azetidin-3-yl)-2-((6-(trifluoromethyl)quinazolin-4-yl)amino)acetamide]
19	O=C(CNc1ncnc2ccc(C(F)(F)F)cc12)NC1CN([C@H]2CC[C@@H](C(O)c3cncs3)CC2)C1 (stereo partly drawn) [Example 99, N-(1-((1R,4s)-4-(hydroxy(thiazol-5-yl)methyl)cyclohexyl)azetidin-3-yl)-2-((6-(trifluoromethyl)quinazolin-4-yl)amino)acetamide]
28	CCC(OC(C)=O)[C@H]1CC[C@@H](N2CC(NC(=O)CNc3ncnc4ccc(C(F)(F)F)cc34)C2)CC1 (stereo partly drawn) [Example 100, 1-((1s,4S)-4-(3-(2-((6-(trifluoromethyl)quinazolin-4-yl)amino)acetamido)azetidin-1-yl)cyclohexyl)propyl acetate]
63	O=C(CNc1ncnc2ccc(C(F)(F)F)cc12)NC1CN(C2CCCCC2)C1 [Example 101, N-(1-cyclohexylazetidin-3-yl)-2-((6-(trifluoromethyl)quinazolin-4-yl)amino)acetamide]
880	O=C(CNc1ncnc2ccc(C(F)(F)F)cc12)NC1CN([C@H]2CC[C@@H](C3CCCCC3)CC2)C1 [Example 102, N-(1-((1s,4s)-1^˜1,1′-bi(cyclohexan)1-4-yl)azetidin-3-yl)-2-((6-(trifluoromethyl)quinazolin-4-yl)amino)acetamide]
530	O=C1CCC(N2CC(NC(=O)CNc3ncnc4ccc(C(F)(F)F)cc34)C2)CC1 [Example 103, N-(1-(4-oxocyclohexyl)azetidin-3-yl)-2-((6-(trifluoromethyl)quinazolin-4-yl)amino)acetamide]
644	CCC(NC(=O)OC)[C@H]1CC[C@@H](N2CC(NC(=O)CNc3ncnc4ccc(C(F)(F)F)cc34)C2)CC1 (stereo partly drawn) [Example 104, methyl (−1-((1s,4S)-4-(3-(2-((6-(trifluoromethyl)quinazolin-4-yl)amino)acetamido)azetidin-1-yl)cyclohexyl)propyl)carbamate]
14	CCOCC1CCC(N2CC(NC(=O)CNc3ncnc4ccc(C(F)(F)F)cc34)C2)CC1 (centres unmarked) [Example 105, N-(1-(4-(ethoxymethyl)cyclohexyl)azetidin-3-yl)-2-((6-(trifluoromethyl)quinazolin-4-yl)amino)acetamide]
13	CCOC(=O)[C@H]1CC[C@@H](N2CC(NC(=O)CNc3ncnc4ccc(C(F)(F)F)cc34)C2)CC1 [Example 106, (1s,4s)-ethyl 4-(3-(2-((6-(trifluoromethyl)quinazolin-4-yl)amino)acetamido)azetidin-1-yl)cyclohexanecarboxylate]
19	O=C(CNc1ncnc2ccc(C(F)(F)F)cc12)NC1CN([C@H]2CC[C@@H](CCO)CC2)C1 [Example 108, N-(1-((1s,4s)-4-(2-hydroxyethyl)cyclohexyl)azetidin-3-yl)-2-((6-(trifluoromethyl)quinazolin-4-yl)amino)acetamide]
58	O=C(CNc1ncnc2ccc(C(F)(F)F)cc12)NC1CN([C@H]2CC[C@@H](CO)CC2)C1 [Example 109, N-(1-((1s,4s)-4-(hydroxymethyl)cyclohexyl)azetidin-3-yl)-2-((6-(trifluoromethyl)quinazolin-4-yl)amino)acetamide]
68	O=C(CNc1ncnc2ccc(C(F)(F)F)cc12)NC1CN([C@H]2CC[C@@H](O)CC2)C1 [Example 110, N-(1-((1s,4s)-4-hydroxycyclohexyl)azetidin-3-yl)-2-((6-(trifluoromethyl)quinazolin-4-yl)amino)acetamide]
37	CC(=O)NC[C@H]1CC[C@@H](N2CC(NC(=O)CNc3ncnc4ccc(C(F)(F)F)cc34)C2)CC1 [Example 111, N-(1-((1s,4s)-4-(acetamidomethyl)cyclohexyl)azetidin-3-yl)-2-((6-(trifluoromethyl)quinazolin-4-yl)amino)acetamide]
81	O=C(CNc1ncnc2ccc(C(F)(F)F)cc12)NC1CN([C@H]2CC[C@@H](CNC(=O)C(F)(F)F)CC2)C1 [Example 112]
120	CC(C)(C)OC(=O)NC[C@H]1CC[C@@H](N2CC(NC(=O)CNc3ncnc4ccc(C(F)(F)F)cc34)C2)CC1 [Example 113, tert-butyl (((1s,4s)-4-(3-(2-((6-(trifluoromethyl)quinazolin-4-yl)amino)acetamido)azetidin-1-yl)cyclohexyl)methyl)carbamate]
280	CC(C)C(=O)NC[C@H]1CC[C@@H](N2CC(NC(=O)CNc3ncnc4ccc(C(F)(F)F)cc34)C2)CC1 [Example 114]
340	CC(=O)N(C[C@H]1CC[C@@H](N2CC(NC(=O)CNc3ncnc4ccc(C(F)(F)F)cc34)C2)CC1)C(C)C [Example 115]

IC50 [nM]	Compound
240	NC[C@H]1CC[C@@H](N2CC(NC(=O)CNc3ncnc4ccc(C(F)(F)F)cc34)C2)CC1 [Example 116, N-(1-((1s,4s)-4-(aminomethyl)cyclohexyl)azetidin-3-yl)-2-((6-(trifluoromethyl)quinazolin-4-yl)amino)acetamide]
100	CC(C)[C@H]1CC[C@@H](N2CC(NC(=O)CNc3ncnc4ccc(C(F)(F)F)cc34)C2)CC1 [Example 117, N-(1-((1s,4s)-4-isopropylcyclohexyl)azetidin-3-yl)-2-((6-(trifluoromethyl)quinazolin-4-yl)amino)acetamide]
85	[2H][C@]1(N2CC(NC(=O)CNc3ncnc4ccc(C(F)(F)F)cc34)C2)CC[C@@H](C(C)C)CC1 [Example 118, N-(1-deutero-1-((1s,4s)-4-isopropylcyclohexyl)azetidin-3-yl)-2-((6-(trifluoromethyl)quinazolin-4-yl)amino)acetamide]
82	CC1CCC(N2CC(NC(=O)CNc3ncnc4ccc(C(F)(F)F)cc34)C2)CC1 (centres unmarked) [Example 119, N-(1-(4-methylcyclohexyl)azetidin-3-yl)-2-((6-(trifluoromethyl)quinazolin-4-yl)amino)acetamide]
83	CCC(OC)[C@H]1CC[C@@H](N2CC(NC(=O)CNc3ncnc4ccc(C(F)(F)F)cc34)C2)CC1 (some centres unmarked) [Example 120, N-(1-((1s,4s)-4-(1-methoxypropyl)cyclohexyl)azetidin-3-yl)-2-((6-(trifluoromethyl)quinazolin-4-yl)amino)acetamide]
98	COCC[C@H]1CC[C@@H](N2CC(NC(=O)CNc3ncnc4ccc(C(F)(F)F)cc34)C2)CC1 [Example 121, N-(1-((1s,4s)-4-(2-methoxyethyl)cyclohexyl)azetidin-3-yl)-2-((6-(trifluoromethyl)quinazolin-4-yl)amino)acetamide]
120	CCOC(=O)CC1CCC(N2CC(NC(=O)CNc3ncnc4ccc(C(F)(F)F)cc34)C2)CC1 (centres unmarked) [Example 122]
130	O=C(CNc1ncnc2ccc(C(F)(F)F)cc12)NC1CN(C2CCC(C(F)(F)F)CC2)C1 (centres unmarked) [Example 123, N-(1-(4-(trifluoromethyl)cyclohexyl)azetidin-3-yl)-2-((6-(trifluoromethyl)quinazolin-4-yl)amino)acetamide]
210	CN(C)C(=O)OC[C@H]1CC[C@@H](N2CC(NC(=O)CNc3ncnc4ccc(C(F)(F)F)cc34)C2)CC1 [Example 124, ((1s,4s)-4-(3-(2-((6-(trifluoromethyl)quinazolin-4-yl)amino)acetamido)azetidin-1-yl)cyclohexyl)methyl dimethylcarbamate]
220	CC(C)(C)OC(=O)NC1CCC(N2CC(NC(=O)CNc3ncnc4ccc(C(F)(F)F)cc34)C2)CC1 (centres unmarked) [Example 125, tert-butyl (4-(3-(2-((6-(trifluoromethyl)quinazolin-4-yl)amino)acetamido)azetidin-1-yl)cyclohexyl)carbamate]
91	CON(C)C(=O)C1CCC(N2CC(NC(=O)CNc3ncnc4ccc(C(F)(F)F)cc34)C2)CC1 (centres unmarked) [Example 126]
200	CCNC(=O)C1CCC(N2CC(NC(=O)CNc3ncnc4ccc(C(F)(F)F)cc34)C2)CC1 (centres unmarked) [Example 127, N-ethyl-4-(3-(2-((6-(trifluoromethyl)quinazolin-4-yl)amino)acetamido)azetidin-1-yl)cyclohexanecarboxamide]
360	CN(C)C(=O)[C@H]1CC[C@@H](N2CC(NC(=O)CNc3ncnc4ccc(C(F)(F)F)cc34)C2)CC1 [Example 128, (1s,4s)-N,N-dimethyl-4-(3-(2-((6-(trifluoromethyl)quinazolin-4-yl)amino)acetamido)azetidin-1-yl)cyclohexanecarboxamide]
390	COc1ccc(CNC(=O)C2CCC(N3CC(NC(=O)CNc4ncnc5ccc(C(F)(F)F)cc45)C3)CC2)c(OC)c1 (centres unmarked) [Example 129, N-(2,4-dimethoxybenzyl)-4-(3-(2-((6-(trifluoromethyl)quinazolin-4-yl)amino)acetamido)azetidin-1-yl)cyclohexanecarboxamide]
1000	O=C(CNc1ncnc2ccc(C(F)(F)F)cc12)NC1CN([C@H]2CC[C@@H](C(=O)N3CCCC3)CC2)C1 [Example 130, N-(1-((1s,4s)-4-(pyrrolidine-1-carbonyl)cyclohexyl)azetidin-3-yl)-2-((6-(trifluoromethyl)quinazolin-4-yl)amino)acetamide]
300	O=C(CNc1ncnc2ccc(C(F)(F)F)cc12)NC1CN([C@H]2CC[C@@H](N3CCC(F)(F)C3)CC2)C1 [Example 131, N-(1-((1s,4s)-4-(3,3-difluoropyrrolidin-1-yl)cyclohexyl)azetidin-3-yl)-2-((6-(trifluoromethyl)quinazolin-4-yl)amino)acetamide]
190	O=C(CNc1ncnc2ccc(C(F)(F)F)cc12)NC1CN([C@H]2CC[C@@H](N3CCOCC3)CC2)C1 [Example 132, N-(1-((1s,4s)-4-morpholinocyclohexyl)azetidin-3-yl)-2-((6-(trifluoromethyl)quinazolin-4-yl)amino)acetamide]
